The target of test [1] is T1, (Mus musculus, UniProt P32300).
T1 construct: by the intracerebroventricular (i.c.v.) route of administration to mice; from tissue; host or cells: living ICR-CD1 mice (central nervous system, i.c.v. dosing)
Description: Tail-flick assay, antagonism of analgesia produced by delta opioid agonists (DPDPE, DEL II). Format: in vivo, ICR-CD1 mice. The note with it: mice, i.c.v. As to the method:
(§1) The testing protocol involved the tail-flick assay. For the measurement of the tail-flick latency, ICR-CD1 mice, mice were held gently in one hand with the tail positioned in the apparatus (Tail Flick Analgesia Meter, Columbus Instruments, Columbus, Ohio) for radiant heat stimulus. The tail-flick response was elicited by applying radiant heat to the dorsal side of the tail. The intensity of the heat was set so that the mouse flicks its tail within 2 to 3 seconds. The test latency was measured before treatment of the agonist control, and again after the antagonist treatment at the time of peak agonist activity.
At least three groups of four to ten mice were used for each dose response curve. ED50 values with 95% confidence intervals (C.I.) were computed with GraphPad Prism 4 using nonlinear regression methods. […] Antinociception was quantified as the percent maximal possible effect (% MPE), which is calculated as: % MPE=(Test−Control/10−Control)×100. GNTI.2HCl or GNTI.2LA. […] The data are expressed as bar graphs that indicate the % maximum possible effect (% MPE) of GNTI-.2HCl or GNTI.2LA in antagonizing the analgesia produced by selective kappa opioid agonists (U50488H, Bremazocine, U69593) or delta opioid agonists (DPDPE, DEL II) by the intracerebroventricular (i.c.v.) route of administration to mice.
(In general: Hot-plate and tail-flick tests time the reaction to a heat stimulus.)

The target of test [2] is T2, kappa opioid receptors (Mus musculus, UniProt P33534).
T2 construct: from tissue; host or cells: living ICR-CD1 mice (central nervous system, i.c.v. dosing)
T2 sequence (P33534 whole entry): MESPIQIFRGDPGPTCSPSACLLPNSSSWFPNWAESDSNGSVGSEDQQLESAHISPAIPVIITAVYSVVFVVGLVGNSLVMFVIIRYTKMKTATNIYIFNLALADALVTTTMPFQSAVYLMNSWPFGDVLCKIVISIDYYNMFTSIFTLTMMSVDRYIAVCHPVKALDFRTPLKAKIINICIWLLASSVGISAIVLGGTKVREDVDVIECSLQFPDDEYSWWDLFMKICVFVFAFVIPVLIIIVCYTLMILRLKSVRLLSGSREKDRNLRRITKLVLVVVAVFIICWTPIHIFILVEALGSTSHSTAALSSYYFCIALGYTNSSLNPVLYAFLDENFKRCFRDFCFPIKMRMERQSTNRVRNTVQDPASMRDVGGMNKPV
Description: Tail-flick assay, antagonism of analgesia produced by selective kappa opioid agonists (U50488H, Bremazocine, U69593). The note with it: mice, i.c.v.; for antagonism of the analgesia produced by selective kappa opioid agonists (% MPE): agonists U50488H, Bremazocine, U69593. Format: in vivo, ICR-CD1 mice. As to the method: as §1
At least three groups of four to ten mice were used for each dose response curve. ED50 values with 95% confidence intervals (C.I.) were computed with GraphPad Prism 4 using nonlinear regression methods. […] Antinociception was quantified as the percent maximal possible effect (% MPE), which is calculated as: % MPE=(Test−Control/10−Control)×100. GNTI.2HCl or GNTI.2LA. The data for the dihydrochloride salt (Sigma GNTI2HCl) and the di-lipoic acid salt, GNTI.2LA (identified as WY-120) are shown in FIGS. 1 and 2. The data are expressed as bar graphs that indicate the % maximum possible effect (% MPE) of GNTI-.2HCl or GNTI.2LA in antagonizing the analgesia produced by selective kappa opioid agonists (U50488H, Bremazocine, U69593) or delta opioid agonists (DPDPE, DEL II) by the intracerebroventricular (i.c.v.) route of administration to mice.

For test [3], the system named is insulin sensitivity. The note with it: 72 patients with type 2 diabetes, oral administration, after four weeks of treatment; cited from earlier work.
Test [4] relates to insulin-stimulated glucose disposal. The note with it: 13 patients with type 2 diabetes, single intravenous infusion; cited from earlier work.
Test [5] has as its system insulin sensitivity. The note with it: 20 patients with type 2 diabetes, intravenous infusion for ten days, measured 24 hours after the last infusion; cited from earlier work.

T1 sequence (P32300 whole entry): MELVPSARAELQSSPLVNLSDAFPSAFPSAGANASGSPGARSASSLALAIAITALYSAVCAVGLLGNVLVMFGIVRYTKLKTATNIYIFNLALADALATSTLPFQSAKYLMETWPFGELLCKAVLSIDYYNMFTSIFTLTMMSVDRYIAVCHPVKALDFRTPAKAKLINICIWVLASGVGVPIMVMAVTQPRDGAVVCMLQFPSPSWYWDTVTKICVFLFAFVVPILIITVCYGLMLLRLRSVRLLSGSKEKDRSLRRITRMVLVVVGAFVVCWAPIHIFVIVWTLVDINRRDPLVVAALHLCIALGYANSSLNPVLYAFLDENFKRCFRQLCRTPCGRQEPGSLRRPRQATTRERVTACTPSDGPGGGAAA

`Cl.Cl.NC(N)=Nc1ccc2[nH]c3c(c2c1)C[C@@]1(O)[C@H]2Cc4ccc(O)c5c4[C@@]1(CCN2CC1CC1)[C@H]3O5` [GNTI.2HCI]: the “antagonism of the analgesia produced by delta opioid agonists (% MPE)” value in test [1] is reported as “not significantly affected”. In addition, in test [2], the “antagonism of the analgesia produced by selective kappa opioid agonists (% MPE)” value is listed as “selectively antagonize the different kappa agonists”.

For `N=C(N)Nc1ccc2[nH]c3c(c2c1)C[C@@]1(O)C2Cc4ccc(O)c5c4[C@@]1(CCN2CC1CC1)[C@H]3O5` [GNTI.2LA, GNTI Dilipoate], the “antagonism of the analgesia produced by delta opioid agonists (% MPE)” value in test [1] is reported as “not significantly affected”. Besides, the “kappa opioid antagonist selectivity compared with GNTI.2HCl” value in test [2] (kappa versus delta agonists) is “not significantly different”. In test [2], the “antagonism of the analgesia produced by selective kappa opioid agonists (% MPE)” value was “selectively antagonize the different kappa agonists”.

Regarding `O=C(O)CCCCC1CCSS1` (centres unmarked) [LA, 1,2-dithiolane-3-pentanoic acid], the “improvement of insulin sensitivity” value in test [3] is on record as 25%. The “improvement of insulin-stimulated glucose disposal compared to a placebo infusion” value in test [4] was 50%. Besides, the insulin sensitivity entry in test [5] is given as “improved insulin sensitivity”.

The values are drawn from US10034871B2, “Salts and compositions useful for treating disease” (REGENTS OF THE UNIVERSITY OF MINNESOTA, priority 2014, dated 2018).
